Data from patent US5663297A, “Antithrombic peptides” (Hoffmann-La Roche Inc., priority 1989, dated 1997).
*1 amine or outer side, *2 acyl side, *3 side chain or, on linkers, in order; H or OH if unused. Where a SMILES comes first, the peptide text is derived from it. [ ]: non-standard residue; d: D form. The star is where a group is joined. X1 = O=C(NCCN(CC(=O)[*:2])[*:1])OCc1ccccc1; 1Nal = N[C@@H](Cc1cccc2ccccc12)C(=O)O; Gly(N-2-aminoethyl) = NCCNCC(=O)O; Cbz = O=C(OCc1ccccc1)*

Tested on: mouse
Assay: Acute toxicity, intravenous, mouse
Format: in vivo
Details: intravenously in the mouse
Method: The compounds of formula I have a low toxicity. Thus the product of Example 2 has a LD50 of 600 mg/kg intravenously in the mouse.

`CC(C)[C@H](NC(=O)[C@H](CC(=O)O)NC(=O)CNC(=O)C(N)Cc1ccc(C(=N)N)cc1)C(=O)O` (mixture of isomers) [Example 2, [3-(p-amidinophenyl)-DL-alanyl]-Gly-Asp-Val-OH] was tested, and the LD50 was 600 mg/kg.

Target: T1, fibrinogen receptor, glycoprotein IIb/IIIa (Homo sapiens, UniProt P05106+P08514)
T1 construct: from tissue
Assay: Inhibition of fibrinogen binding to immobilized glycoprotein IIb/IIIa (ELISA)
Details: concentration required to inhibit binding of fibrinogen to the immobilized receptor from human blood platelets by 50%
Method: The glycoprotein IIb/IIIa is obtained-from Triton X-100 extracts of human blood platelets and purified by lectin affinity chromatography (Analytical Biochemistry 151, 1985, 169-177) and chromatography on an Arg-Gly-Asp-Ser affinity column (Science 231, 1986, 1559-62). The thus-obtained receptor protein is bonded to microtitre plates. The specific binding of fibrinogen to the immobilized receptor is determined with the aid of an ELISA system ("enzyme-linked immunosorbent assay"). The IC50 values hereinafter correspond to that concentration of the test substance which is required to inhibit the binding of fibrinogen to the immobilized receptor by 50%: […]

T1 sequence (P08514 32-887 limits assumed): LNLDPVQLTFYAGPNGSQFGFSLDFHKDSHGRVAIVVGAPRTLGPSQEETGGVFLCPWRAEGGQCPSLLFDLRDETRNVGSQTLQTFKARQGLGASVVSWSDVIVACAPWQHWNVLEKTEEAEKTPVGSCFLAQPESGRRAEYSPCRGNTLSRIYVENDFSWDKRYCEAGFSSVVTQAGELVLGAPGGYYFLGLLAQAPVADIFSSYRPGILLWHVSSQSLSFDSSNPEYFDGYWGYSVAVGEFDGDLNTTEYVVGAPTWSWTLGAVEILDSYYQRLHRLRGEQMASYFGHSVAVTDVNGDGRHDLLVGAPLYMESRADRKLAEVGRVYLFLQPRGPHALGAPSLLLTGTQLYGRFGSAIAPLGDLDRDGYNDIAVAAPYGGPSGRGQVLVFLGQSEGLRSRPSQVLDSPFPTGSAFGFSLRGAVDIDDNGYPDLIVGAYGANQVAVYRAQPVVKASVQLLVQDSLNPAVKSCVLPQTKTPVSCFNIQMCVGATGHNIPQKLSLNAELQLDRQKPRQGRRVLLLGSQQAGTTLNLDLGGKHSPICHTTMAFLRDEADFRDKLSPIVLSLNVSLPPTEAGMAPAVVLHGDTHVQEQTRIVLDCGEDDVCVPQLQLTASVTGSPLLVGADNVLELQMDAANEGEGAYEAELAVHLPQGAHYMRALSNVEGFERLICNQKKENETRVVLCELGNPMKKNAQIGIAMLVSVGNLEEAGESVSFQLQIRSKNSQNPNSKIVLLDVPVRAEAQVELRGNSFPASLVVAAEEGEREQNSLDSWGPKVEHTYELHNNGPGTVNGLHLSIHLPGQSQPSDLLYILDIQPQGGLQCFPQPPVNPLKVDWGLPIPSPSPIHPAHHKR
T1 sequence (P08514 891-1039 partner limits assumed): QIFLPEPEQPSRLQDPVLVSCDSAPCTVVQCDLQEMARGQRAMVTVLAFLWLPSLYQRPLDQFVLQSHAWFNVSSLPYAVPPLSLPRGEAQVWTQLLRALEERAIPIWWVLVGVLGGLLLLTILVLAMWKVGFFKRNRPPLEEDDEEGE
T1 sequence (P05106 27-788): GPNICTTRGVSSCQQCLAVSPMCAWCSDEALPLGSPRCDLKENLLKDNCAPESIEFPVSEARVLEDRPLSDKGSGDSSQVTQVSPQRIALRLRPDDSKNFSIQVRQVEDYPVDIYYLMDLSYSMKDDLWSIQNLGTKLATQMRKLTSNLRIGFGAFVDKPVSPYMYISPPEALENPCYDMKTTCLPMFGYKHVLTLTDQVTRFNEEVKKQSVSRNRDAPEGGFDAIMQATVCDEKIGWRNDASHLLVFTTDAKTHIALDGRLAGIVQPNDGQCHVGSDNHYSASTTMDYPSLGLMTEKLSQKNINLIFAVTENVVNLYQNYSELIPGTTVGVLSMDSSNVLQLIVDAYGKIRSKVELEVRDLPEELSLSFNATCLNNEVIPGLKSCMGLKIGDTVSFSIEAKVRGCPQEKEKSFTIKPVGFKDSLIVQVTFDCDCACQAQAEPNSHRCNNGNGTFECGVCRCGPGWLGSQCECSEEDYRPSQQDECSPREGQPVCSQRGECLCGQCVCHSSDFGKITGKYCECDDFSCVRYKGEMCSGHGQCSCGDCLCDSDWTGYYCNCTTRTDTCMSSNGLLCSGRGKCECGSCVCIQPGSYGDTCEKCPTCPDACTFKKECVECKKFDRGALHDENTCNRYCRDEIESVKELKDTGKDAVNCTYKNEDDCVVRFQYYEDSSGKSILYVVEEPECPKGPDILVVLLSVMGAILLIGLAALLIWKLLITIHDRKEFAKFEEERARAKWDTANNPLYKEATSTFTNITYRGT

Compared with `CC(C)[C@H](NC(=O)[C@H](CC(=O)O)NC(=O)CNC(=O)CCc1ccc(CN)cc1)C(=O)O` [Example 23, (p-aminomethylhydrocinnamoyl)-Gly-Asp-Val-OH], `CC(C)[C@H](NC(=O)[C@H](CC(=O)O)NC(=O)CNC(=O)CCc1ccc(C(=N)N)cc1)C(=O)O` [Example 24, (p-amidinohydrocinnamoyl)-Gly-Asp-Val-OH] is 6-fold lower in IC50: 210 nM for the first, 35 nM for the second. The second is the more potent here.

`CC(C)[C@H](NC(=O)[C@H](CC(=O)O)NC(=O)CNC(=O)[C@H](N)Cc1ccc(C(=N)N)cc1)C(=O)O` [Example 20, [3-(p-amidinophenyl)-D-alanyl]-Gly-Asp-Val-OH] and `CC(C)[C@H](NC(=O)[C@H](CC(=O)O)NC(=O)CNC(=O)[C@@H](N)Cc1ccc(C(=N)N)cc1)C(=O)O` [Example 25, [3-(p-amidinophenyl)-L-alanyl]-Gly-Asp-Val-OH] are within 1.5-fold of each other in IC50: 22 nM for the first, 23 nM for the second.

Compared with `N=C(N)c1ccc(CCC(=O)NCC(=O)N[C@@H](CC(=O)O)C(=O)N[C@@H](Cc2cccc3ccccc23)C(=O)O)cc1` [Example 19, (p-amidinohydrocinnamoyl)-Gly Asp-Nal(1)-OH], `N=C(N)c1ccc(CC(N)C(=O)NCC(=O)N[C@@H](CC(=O)O)C(=O)N[C@@H](Cc2cccc3ccccc23)C(=O)O)cc1` (mixture of isomers) [Example 16, [3-(p-amidinophenyl)-DL-alanyl]-Gly-Asp-Nal(1)-OH] is 2-fold higher in IC50: 11 nM for the first, 22 nM for the second.

`CC[C@H](C)[C@H](NC(=O)[C@H](CC(=O)O)NC(=O)CNC(=O)[C@H](CCCNC(=N)N)NC(=O)CNCCN)C(=O)O` [Example 11, Aeg Arg- Gly-Asp-Ile-OH] (H-[Gly(N-2-aminoethyl)]RGDI-OH) and `CC(C)[C@H](NC(=O)[C@H](CC(=O)O)NC(=O)CNC(=O)[C@H](CCCNC(=N)N)NC(=O)CNCCN)C(=O)O` [Example 7, Aeg-Arg-Gly-Asp-Val-OH] (H-[Gly(N-2-aminoethyl)]RGDV-OH) are within 1.5-fold of each other in IC50: 120 nM for the first, 90 nM for the second.

Going from `CC(C)[C@H](NC(=O)[C@H](CC(=O)O)NC(=O)CNC(=O)[C@H](CCCNC1=NC2(O)CCCCC2(O)N1)NC(=O)OC(C)(C)C)C(=O)O` (stereo partly drawn) [Example 14, [N2-Boc-N5-(3a,4,5,6,7,7a-hexahydro-3a,7a-dihydroxy-1H-benzimidazol-2-yl)- L-ornithyl]-Gly-Asp-Val-OH] to `CC(=N)NCCCC[C@H](NC(=O)OC(C)(C)C)C(=O)NCC(=O)N[C@@H](CC(=O)O)C(=O)N[C@H](C(=O)O)C(C)C` [Example 12, [N2-Boc-N6 -(1-iminoethyl)-L-lysyl]Gly-Asp-Val- -OH], the IC50 rises from 54 nM to 110 nM (2-fold).

Compared with `N=C(N)NCCC[C@H](NC(=O)CNCCN)C(=O)NCC(=O)N[C@@H](CC(=O)O)C(=O)N[C@@H](CO)C(=O)O` [Example 8, Aeg-Arg-Gly-Asp-Ser-OH], `N=C(N)NCCC[C@H](NC(=O)CNCCN)C(=O)NCC(=O)N[C@@H](CC(=O)O)C(=O)N[C@@H](Cc1cccc2ccccc12)C(=O)O` [Example 10, N-Aeg-Arg-Gly-Asp-Nal(1)-OH] (H-[Gly(N-2-aminoethyl)]RGD[1Nal]-OH) is 2.9-fold lower in IC50: 110 nM for the first, 38 nM for the second. The second is the more potent here.

`CC(C)[C@H](NC(=O)[C@H](CC(=O)O)NC(=O)CNC(=O)[C@H](CCCNC(=N)N)NC(=O)CN(CCNC(=O)OCc1ccccc1)C(=O)OCc1ccccc1)C(=O)O` [Example 6, Z-Aeg(Z)-Arg-Gly-Asp-Val-OH] (Cbz-[X1]RGDV-OH) and `[N-]=[N+]=Nc1ccccc1C(=O)N[C@@H](CCCNC(=N)N)C(=O)NCC(=O)N[C@@H](CC(=O)O)C(=O)Nc1ccccc1C(=O)O` [Example 13, N-[(o-azidobenzoyl)-Arg-Gly-Asp]-anthranilic acid] are within 1.5-fold of each other in IC50: 150 nM for the first, 110 nM for the second.

First: CC(C)[C@H](NC(=O)[C@H](CC(=O)O)NC(=O)CNC(=O)C(Cc1ccc(NC(=N)N)cc1)NC(=O)OC(C)(C)C)C(=O)O (mixture of isomers) [Example 15, [N-Boc-3-(p-guanidinophenyl)-DL-alanyl]-Gly-Asp-Val-OH]
Second: CC(C)[C@H](NC(=O)[C@H](CC(=O)O)NC(=O)CNC(=O)C(Cc1ccc(C(=N)N)cc1)NC(=O)OC(C)(C)C)C(=O)O (mixture of isomers) [Example 17, [N-Boc-3-(p-amidinophenyl)-DL-alanyl]-Gly-Asp-Val-OH]
The IC50 of the first is 5-fold higher: 80 nM for the first, 16 nM for the second.

First: CC(C)[C@H](NC(=O)[C@H](CC(=O)O)NC(=O)CNC(=O)COc1ccc(C(=N)N)cc1)C(=O)O [Example 26, (p-amidinophenoxy)acetyl-Gly-Asp Val-OH]
Second: CC(C)[C@H](NC(=O)[C@H](CC(=O)O)NC(=O)CNC(=O)Cc1ccc(C(=N)N)cc1)C(=O)O [Example 27, (p-amidinophenyl)acetyl-Gly-Asp-Val-OH]
The IC50 of the first is 2.6-fold higher: 5 nM for the first, 1.9 nM for the second. The second is the more potent here.

Compound `CC(C)[C@H](NC(=O)[C@H](CC(=O)O)NC(=O)CNC(=O)C(N)Cc1ccc(C(=N)N)cc1)C(=O)O` (mixture of isomers) [Example 2, [3-(p-amidinophenyl)-DL-alanyl]-Gly-Asp-Val-OH] has an IC50 of 16 nM.
